The source of these data is patent publication US7495018B2, “Substituted 1,3-thiazole compounds, their production and use” (Takeda Pharmaceutical Company Limited, priority 2000, dated 2009).

What is called melting point is the temperature, or range, at which the solid turns liquid.

Compound `Cc1cccc(-c2nc(N)sc2-c2ccnc(NC3CCCCC3)c2)c1` [Example Compound 34-2, [5-(2-cyclohexylamino-4-pyridyl)-4-(3-methylphenyl)-1,3-thiazol-2-yl]amine] yielded a melting point of 168 to 169 °C.

In turn, `Cc1cccc(-c2nc(N)sc2-c2ccnc(NC3CCCC3)c2)c1` [Example Compound 34-3, [5-(2-cyclopentylamino-4-pyridyl)-4-(3-methylphenyl)-1,3-thiazol-2-yl]amine] showed a melting point of 169 to 170 °C.

Take `Nc1nc(-c2cccc(Cl)c2)c(-c2ccnc(N3CCCCC3)c2)s1` [Example Compound 35-1, [4-(3-chlorophenyl)-5-(2-piperidino-4-pyridyl)-1,3-thiazol-2-yl]amine]: the melting point lay in the range of 206 to 208 °C.

Regarding `Cc1cccc(-c2nc(-c3ccc(S(C)(=O)=O)cc3)sc2N2C=CC=CC2N2CCCCC2)c1` (stereo not shown) [Example Compound 35-2, 4-(3-methylphenyl)-2-(4-methylsulfonylphenyl)-5-(2-piperidino-1-pyridyl)-1,3-thiazole], the melting point is 155 to 157 °C.

Compound `Nc1nc(-c2ccc(F)cc2)c(-c2ccnc(NC3CCCCC3)c2)s1` [Example Compound 36-1, [5-(2-cyclohexylamino-4-pyridyl)-4-(4-fluorophenyl)-1,3-thiazol-2-yl]amine] had a melting point of 194 to 195 °C.

`CNc1nc(-c2cccc(C)c2)c(-c2ccnc(NC3CCCCC3)c2)s1` [Example Compound 36-2, N-methyl-[5-(2-cyclohexylamino-4-pyridyl)-4-(3-methylphenyl)-1,3-thiazol-2-yl]amine] gave a melting point of 211 to 212 °C.

The compound `CNc1nc(-c2cccc(C)c2)c(-c2ccnc(NC3CCCC3)c2)s1` [Example Compound 36-3, N-methyl-[5-(2-cyclopentylamino-4-pyridyl)-4-(3-methylphenyl)-1,3-thiazol-2-yl]amine] showed a melting point of 170 to 172 °C.

For the compound `CCc1nc(-c2cccc(C)c2)c(-c2ccnc(NC3CCCCC3)c2)s1` [Example Compound 36-4, N-cyclohexyl-4-[2-ethyl-4-(3-methylphenyl)-1,3-thiazol-5-yl]-2-pyridylamine], the melting point lay in the range of 110 to 112 °C.

For `Cc1cccc(-c2nc(-c3ccc(S(C)(=O)=O)cc3)sc2-c2ccnc(NC3CCCCC3)c2)c1` [Example Compound 36-5, N-cyclohexyl-4-[4-(3-methylphenyl)-2-(4-methylsulfonylphenyl)-1,3-thiazol-5-yl]-2-pyridylamine], the melting point fell in the range of 197 to 199 °C.

Consider `Cc1cccc(-c2nc(-c3ccc(S(C)(=O)=O)cc3)sc2-c2ccnc(NC3CCCC3)c2)c1` [Example Compound 36-7, N-cyclopentyl-4-[4-(3-methylphenyl)-2-(4-methylsulfonylphenyl)-1,3-thiazol-5-yl]-2-pyridylamine], for which the melting point fell in the range of 154 to 156 °C.

`Cc1cccc(-c2nc(-c3ccc(S(C)(=O)=O)cc3)sc2-c2ccnc(N3CCOCC3)c2)c1` [Example Compound 36-8, 4-(3-methylphenyl)-2-(4-methylsulfonylphenyl)-5-(2-morpholino-4-pyridyl)-1,3-thiazole] yielded a melting point of 200 to 202 °C.

In turn, `CCc1nc(-c2cccc(C)c2)c(-c2ccnc(N3CCOCC3)c2)s1` [Example Compound 36-9, 2-ethyl-4-(3-methylphenyl)-5-(2-morpholino-4-pyridyl)-1,3-thiazole] came in with a melting point of 69 to 71 °C.

Consider `CCc1nc(-c2cccc(Cl)c2)c(-c2ccnc(NC3CCCCC3)c2)s1` [Example Compound 36-10, 4-[4-(3-chlorophenyl)-2-ethyl-1,3-thiazol-5-yl]-N-cyclohexyl-2-pyridylamine], for which the melting point lay in the range of 106 to 107 °C.

`CCc1nc(-c2cccc(Cl)c2)c(-c2ccnc(NC3CCCC3)c2)s1` [Example Compound 36-11, 4-[4-(3-chlorophenyl)-2-ethyl-1,3-thiazol-5-yl]-N-cyclopentyl-2-pyridylamine] had a melting point of 110 to 111 °C.

For the compound `Cc1cccc(-c2nc(-c3ccc(S(C)(=O)=O)cc3)sc2-c2ccnc(N(C)C3CCCCC3)c2)c1` [Example Compound 37-2, N-cyclohexyl-N-methyl-4-[4-(3-methylphenyl)-2-(4-methylsulfonylphenyl)-1,3-thiazol-5-yl]-2-pyridylamine], the melting point was in the range of 173 to 174 °C.

As to `Cc1cccc(-c2nc(-c3ccc(S(C)(=O)=O)cc3)sc2-c2ccnc(NCC3CCCCC3)c2)c1` [Example Compound 37-3, N-cyclohexylmethyl-4-[4-(3-methylphenyl)-2-(4-methylsulfonylphenyl)-1,3-thiazol-5-yl]-2-pyridylamine], the melting point lay in the range of 157 to 159 °C.

Consider `Cc1cccc(-c2nc(-c3ccc(S(C)(=O)=O)cc3)sc2-c2ccnc(N3CCCC3)c2)c1` [Example Compound 37-4, 4-(3-methylphenyl)-2-(4-methylsulfonylphenyl)-5-[2-(1-pyrrolidinyl)-4-pyridyl]-1,3-thiazole], for which the melting point lay in the range of 199 to 201 °C.

Regarding `Cc1cccc(-c2nc(-c3ccc(S(C)(=O)=O)cc3)sc2-c2ccnc(N3CCN(C)CC3)c2)c1` [Example Compound 37-5, 4-(3-methylphenyl)-5-[2-(4-methyl-1-piperazinyl)-4-pyridyl]-2-(4-methylsulfonylphenyl)-1,3-thiazole], the melting point is 153 to 154 °C.

In turn, `CC(=O)Nc1nc(-c2cc(C)cc(C)c2)c(-c2ccnc(C)c2)s1` [Example Compound 40-1, N-[4-(3,5-dimethylphenyl)-5-(2-methyl-4-pyridyl)-1,3-thiazol-2-yl]acetamide] returned a melting point of 236 to 237 °C.

As for `CC(=O)Nc1nc(-c2cccc(C)c2)c(-c2cc(C)nc(C)c2)s1` [Example Compound 40-2, N-[5-(2,6-dimethyl-4-pyridyl)-4-(3-methylphenyl)-1,3-thiazol-2-yl]acetamide], the melting point is 185 to 187 °C.

Compound `CC(=O)Nc1nc(-c2cc(C)cc(C)c2)c(-c2cc(C)nc(C)c2)s1` [Example Compound 40-3, N-[4-(3,5-dimethylphenyl)-5-(2,6-dimethyl-4-pyridyl)-1,3-thiazol-2-yl]acetamide] yielded a melting point of 266 to 267 °C.

As for `Cc1cccc(-c2nc(NC(=O)c3cccnc3)sc2-c2ccnc(C)c2)c1` [Example Compound 41, N-[4-(3-methylphenyl)-5-(2-methyl-4-pyridyl)-1,3-thiazol-2-yl]nicotinamide], the melting point fell in the range of 175 to 178 °C.

On to `Cc1cc(C)cc(-c2nc(NC(=O)c3cccnc3)sc2-c2ccnc(C)c2)c1` [Example Compound 42-1, N-[4-(3,5-dimethylphenyl)-5-(2-methyl-4-pyridyl)-1,3-thiazol-2-yl]nicotinamide], for which the melting point lay within 203 to 206 °C.

`Cc1cc(C)cc(-c2nc(NC(=O)c3cccnc3)sc2-c2cc(C)nc(C)c2)c1` [Example Compound 42-2, N-[4-(3,5-dimethylphenyl)-5-(2,6-dimethyl-4-pyridyl)-1,3-thiazol-2-yl]nicotinamide] gave a melting point of 267 to 268 °C.

Compound `Cc1cccc(-c2nc(NC(=O)c3cccnc3)sc2-c2ccnc(NC3CCCCC3)c2)c1` [Example Compound 42-3, N-[5-(2-cyclohexylamino-4-pyridyl)-4-(3-methylphenyl)-1,3-thiazol-2-yl]nicotinamide] gave a melting point of 201 to 203 °C.
